# Test results as given in publication PMC6764326, “The Trials and Tribulations of Structure Assisted Design of KCa Channel Activators” (Frontiers in Pharmacology, 2019).
# Target: T1, KCa2.2 (Homo sapiens, UniProt P0DP23+Q9H2S1)
# T1 construct: expressed in transfected cells
# Experiment: QPatch automated whole-cell patch-clamp screen, 10 µM activator normalized to 10 µM SKA-31
# Format: cell-based
# Details: 250 nM free internal Ca2+, HEK cells stably expressing channel
# Procedure: (§1) All experiments were performed in either the inside-out or the whole-cell configuration of the patch-clamp technique on either transiently transfected CHO cells or Human Embryonic Kidney (HEK) cell lines stably expressing hKCa3.1 or hKCa2.2 ([Sankaranarayanan et al., 2009]). All cells were cultured in Dulbecco’s modified Eagle’s medium supplemented with 10% fetal calf serum. Wild-type (WT) and mutant hKCa3.1 channel constructs were transfected using FuGENE 6 transfection reagent (Promega, Madison, WI) in OptiMEM reduced-serum medium (Life Technologies, Benicia, CA) for manual patch-clamp experiments or via electroporation (Nucleofector 2b and Lonza Amaxa Cell Line Nucleofector Kit T) according to the manufacturer’s instructions for automated electrophysiology.
# (§2) The procedure for performing automated whole-cell KCa channel recordings on a QPatch-16 automated electrophysiology platform (Sophion Biosciences) was previously described in detail by our laboratory ([Jenkins et al., 2013]). For the current study we used the solutions described above with disposable 16-channel planar patch chip plates (QPlates; patch hole diameter […], resistance 2.00–0.02MΩ, Sophion Biosciences, Woburn, MA). Cell positioning and sealing parameters were set as follows: positioning pressure -70 mbar, resistance increase for success 750%, minimum seal resistance 0.1 GΩ, holding potential -0 mV, holding pressure -20 mbar. To avoid rejection of cells with large KCa3.1 currents, the minimum seal resistance for whole-cell requirement was lowered to 0.001 GΩ. Access was obtained with the following sequence: 1) suction pulses in 29 mbar increments from -250 mbar to -453 mbar; 2) a suction ramp of an amplitude of -450 mbar; 3) -400 mV voltage zaps of 1 ms duration. Following establishment of the whole-cell configuration, cells were held at -80 mV and KCa currents elicited by a voltage protocol that held at -80 mV for 20 ms, stepped to -120 mV for 20 ms, ramped from -120 to + 40 mV in 200 ms, and then stepped back to -120 mV for 20 ms. This pulse protocol was applied every 10 s. KCa activator dilutions were prepared freshly (within 5 min of the initiation of the QPatch) with Ringer’s solution from 10 mM stock solutions in dry DMSO. Final DMSO concentrations never exceeded 1%. Glass vial inserts (to avoid adsorption) were filled with 400 µL of compound solution and placed into the insert base plate for use in the QPatch assay. Exemplary QPatch raw current traces and plots of slope conductance versus time are shown in Supplementary Figure 3 . For each compound we typically used 12 consecutive liquid periods Break-in, 3 saline additions to stabilize the current, 2 additions of test compound at 10 µM, 2 saline washes, 2 additions of SKA-31 at 10 µM, followed by 2 more saline washes. In each liquid period 10 pulse protocols were run.
# (§3) The newly synthesized compounds were tested by automated whole-cell patch-clamp for their ability to activate KCa2.2 and KCa3.1 channels stably expressed in HEK cells. […] A promising compound would ideally do both. […] We started by comparing the effect of the SKA-74 derivatives to SKA-31 ( Figure 4A ).
# (§4) Figure 4 Whole-cell KCa3.1 and KCa2.2 responses elicited by 10 µM of activator and normalized to 10 µM of the mixed activator SKA-31. Experiments were performed by automated electrophysiology with 250 nM of free internal Ca^2+. In each experiment the new activator was tested first, washed out with 2 saline additions, and then SKA-31 was applied as positive control for normalization of the response. (A) Screening of SKA-74 derivatives. (B) Screening of SKA-75 and SKA-76 derivatives. The bar graphs show means ± SD of the slope conductance measured between −85 and −65 mV (n = 2–7 cells). Chemical structures are shown below the bar graphs.
# (§5) Figure 5 Whole-cell KCa3.1 and KCa2.2 responses elicited by 10 µM of activator and normalized to 10 µM of the mixed activator SKA-31. […]
row,Compound,Whole-cell KCa2.2 response elicited by 10 µM of activator normalized to 10 µM SKA-31 (described in words)
1,"2-Aminonaphtho[1,2-d]oxazole-5-sulfonic acid [SKA-128]",drastically reduced potency
2,"Cc1nc2c(cc(Cl)c3ccccc32)s1 [SKA-130, 5-Chloro-2-methylnaphtho[1,2-d]thiazole]",decreased activity
3,"Cc1nc2c(cc(Br)c3ccccc32)s1 [SKA-132, 5-Bromo-2-methylnaphtho[1,2-d]thiazole]",decreased activity
4,"c1ccc2c(c1)ccc1sc(NC3CCCCC3)nc12 [SKA-165, N-Cyclohexylnaphtho[1,2-d]thiazol-2-amine]",completely eliminated activity
5,"Cc1ccc(-c2csc(N)n2)c2ccccc12 [SKA-190, 4-(4-Methylnaphthalen-1-yl)thiazol-2-amine]",somewhat increased KCa channel activating potency
6,"Nc1nc(-c2ccc3ccccc3c2)c(Br)s1 [SKA-220, 5-Bromo-4-(naphthalen-2-yl)thiazol-2-amine]",somewhat increased KCa channel activating potency
7,"Nc1nc(-c2ccc(-c3ccccc3)cc2)cs1 [SKA-232, 4-Biphenyl-4-yl-thiazol-2-ylamine]",completely devoid of activity
8,"Nc1ncc(-c2ccc(-c3ccc(-c4cnc(N)s4)cc3)cc2)s1 [SKA-255, Bis-4,4’-(2-amino-4-thiazolyl)biphenyl]",completely devoid of activity

# Target: T2, KCa3.1 (Homo sapiens, UniProt O15554+P0DP23)
# T2 construct: expressed in transfected cells
# Experiment: as above
# Format: cell-based
# Details: 250 nM free internal Ca2+, HEK cells stably expressing channel
# Procedure: as §1, §2, §3, §4, §5
row,Compound,Whole-cell KCa3.1 response elicited by 10 µM of activator normalized to 10 µM SKA-31 (described in words)
1,"2-Aminonaphtho[1,2-d]oxazole-5-sulfonic acid [SKA-128]",drastically reduced potency
2,"c1ccc2c(c1)ccc1sc(NC3CCCCC3)nc12 [SKA-165, N-Cyclohexylnaphtho[1,2-d]thiazol-2-amine]",completely eliminated activity
3,"Cc1ccc(-c2csc(N)n2)c2ccccc12 [SKA-190, 4-(4-Methylnaphthalen-1-yl)thiazol-2-amine]",somewhat increased KCa channel activating potency
4,"Nc1nc(-c2ccc3ccccc3c2)c(Br)s1 [SKA-220, 5-Bromo-4-(naphthalen-2-yl)thiazol-2-amine]",somewhat increased KCa channel activating potency
5,"Nc1nc(-c2ccc(-c3ccccc3)cc2)cs1 [SKA-232, 4-Biphenyl-4-yl-thiazol-2-ylamine]",completely devoid of activity
6,"Nc1ncc(-c2ccc(-c3ccc(-c4cnc(N)s4)cc3)cc2)s1 [SKA-255, Bis-4,4’-(2-amino-4-thiazolyl)biphenyl]",completely devoid of activity
7,"CCc1cc2sc(N)nc2c2ccccc12 [SKA-306, 5-Ethylnaphtho[1,2-d]thiazol-2-amine]",roughly as potent
8,"CCCc1cc2sc(N)nc2c2ccccc12 [SKA-307, 5-Propylnaphtho[1,2-d]thiazol-2-amine]",roughly as potent
9,"CC(C)c1cc2sc(N)nc2c2ccccc12 [SKA-308, 5-Isopropylnaphtho[1,2-d]thiazol-2-amine]",roughly as potent
10,"CN(C)c1cc2sc(N)nc2c2ccccc12 [SKA-331, N^5,N^5-Dimethylnaphtho[1,2-d]thiazole-2,5-diamine]",roughly as potent

# Same assay, conditions: KCa3.1 versus KCa2.2, 250 nM free Ca2+
row,Compound,Selectivity between KCa3.1 and KCa2.2 in the 10 µM screen
1,"5,6-Dinitronaphtho[1,2-d]thiazol-2-amine [SKA-218]",preserved the selectivity for KCa3.1
2,"Cc1nc2c(cc(Cl)c3ccccc32)s1 [SKA-130, 5-Chloro-2-methylnaphtho[1,2-d]thiazole]",preserved selectivity for KCa3.1
3,"Cc1nc2c(cc(Br)c3ccccc32)s1 [SKA-132, 5-Bromo-2-methylnaphtho[1,2-d]thiazole]",preserved selectivity for KCa3.1
4,"Cc1nc2c(ccc3c(N)cccc32)s1 [SKA-172, 2-Methylnaphtho[1,2-d]thiazol-6-amine]",preserved the selectivity for KCa3.1
5,"Cc1nc2c(ccc3cccc(N)c32)s1 [SKA-178, 2-Methylnaphtho[1,2-d]thiazol-9-amine]",preserved the selectivity for KCa3.1
6,"Cc1nc2c(ccc3cccc([N+](=O)[O-])c32)s1 [SKA-216, 2-Methyl-9-nitronaphtho[1,2-d]thiazole]",preserved the selectivity for KCa3.1
7,"CCc1cc2sc(N)nc2c2ccccc12 [SKA-306, 5-Ethylnaphtho[1,2-d]thiazol-2-amine]",as KCa3.1 selective as SKA-111
8,"CCCc1cc2sc(N)nc2c2ccccc12 [SKA-307, 5-Propylnaphtho[1,2-d]thiazol-2-amine]",as KCa3.1 selective as SKA-111
9,"CC(C)c1cc2sc(N)nc2c2ccccc12 [SKA-308, 5-Isopropylnaphtho[1,2-d]thiazol-2-amine]",as KCa3.1 selective as SKA-111
10,"CN(C)c1cc2sc(N)nc2c2ccccc12 [SKA-331, N^5,N^5-Dimethylnaphtho[1,2-d]thiazole-2,5-diamine]",as KCa3.1 selective as SKA-111

# System: not given
# Experiment: not given
# Details: not given
row,Compound,melting point [°C]
1,"Nc1nc2cc3ccccc3cc2o1 [SKA-134, Naphtho[2,3-d]oxazol-2-amine]",247 to 248
2,"Cc1nc2c(ccc3cccc(N)c32)s1 [SKA-178, 2-Methylnaphtho[1,2-d]thiazol-9-amine]",87 to 88
3,"CNc1nc2c(cc(C)c3ccccc32)s1 [SKA-204, N,5-Dimethylnaphtho[1,2-d]thiazol-2-amine]",172 to 173
4,"Cc1nc2c(ccc3cccc([N+](=O)[O-])c32)s1 [SKA-216, 2-Methyl-9-nitronaphtho[1,2-d]thiazole]",151 to 152
5,"CCc1cc2sc(N)nc2c2ccccc12 [SKA-306, 5-Ethylnaphtho[1,2-d]thiazol-2-amine]",144 to 145
6,"CCCc1cc2sc(N)nc2c2ccccc12 [SKA-307, 5-Propylnaphtho[1,2-d]thiazol-2-amine]",147 to 150
7,"CC(C)c1cc2sc(N)nc2c2ccccc12 [SKA-308, 5-Isopropylnaphtho[1,2-d]thiazol-2-amine]",179 to 181
8,"Nc1nc2c(cc(-c3ccccc3)c3ccccc32)s1 [SKA-326, 5-Phenylnaphtho[1,2-d]thiazol-2-amine]",177 to 178
9,"CN(C)c1cc2sc(N)nc2c2ccccc12 [SKA-331, N^5,N^5-Dimethylnaphtho[1,2-d]thiazole-2,5-diamine]",171 to 174
10,"Nc1nc2c(cc(-n3ccnc3)c3ccccc32)s1 [SKA-334, 5-(1H-Imidazol-1-yl)naphtho[1,2-d]thiazol-2-amine]",272 to 275
11,"Nc1nc2c(cc(-n3cccn3)c3ccccc32)s1 [SKA-335, 5-(1H-Pyrazol-1-yl)naphtho[1,2-d]thiazol-2-amine]",226 to 227
12,"Nc1nc2c(cc(-n3ccnn3)c3ccccc32)s1 [SKA-339, 5-(1H-1,2,3-Triazol-1-yl)naphtho[1,2-d]thiazol-2-amine]",208
13,"Cc1ccn(-c2cc3sc(N)nc3c3ccccc23)n1 [SKA-340, 5-(3-Methyl-1H-pyrazol-1-yl)naphtho[1,2-d]thiazol-2-amine]",189 to 190
14,"Nc1nc2c(cc(-n3ccc(C(F)(F)F)n3)c3ccccc32)s1 [SKA-341, 5-(3-(Trifluoromethyl)-1H-pyrazol-1-yl)naphtho[1,2-d]thiazol-2-amine]",206 to 207
15,"Cc1cn(-c2cc3sc(N)nc3c3ccccc23)cn1 [SKA-343, 5-(4-Methyl-1H-imidazol-1-yl)naphtho[1,2-d]thiazol-2-amine]",269 to 271
16,"Cc1nccn1-c1cc2sc(N)nc2c2ccccc12 [SKA-344, 5-(2-Methyl-1H-imidazol-1-yl)naphtho[1,2-d]thiazol-2-amine]",264 to 265
17,"Cc1cnn(-c2cc3sc(N)nc3c3ccccc23)c1 [SKA-345, 5-(4-Methyl-1H-pyrazol-1-yl)naphtho[1,2-d]thiazol-2-amine]",249
18,"Nc1nc2c(cc(-n3cncn3)c3ccccc32)s1 [SKA-347, 5-(1H-1,2,4-Triazol-1-yl)naphtho[1,2-d]thiazol-2-amine]",273
